Results on 30 molecules are retold here after patent publication US3963707A, “Novel N-nitroso compounds, compositions containing such compounds, processes for their preparation and methods of treatment therewith, and novel intermediates” (Aktiebolaget Leo, priority 1973, dated 1976).

The test system of the assay is Hepatoma AH 130. Put plainly: in vivo. Set-up: species or system SPF Wistar rats. The settings on record: additional compounds, result in words. The text has this: The high activity against tumours is further illustrated in these experiments by comparisons with known antitumour agents used in the therapy. The therapeutic indexes (T.I.), i.e. the ratios LD50/ED50, are in all comparisons much more favourable with the compounds of the present invention.
LD50 is the dose that caused a 50 percent lethality of the animals, ED50 is the dose that caused a 50 percent reduction of tumour size.
The experimental design and the interpretation of the results have been in accordance with the standards set by the CCNSC (Cancer Chemotherapy Reports, January 1959 and December 1962), and by the DR&D (Cancer Chemotherapy Reports, September 1972, Vol. 3, No. 2).
The way of administration is by the intraperitoneal route (i.p.) in each case.
Experimental animals: SPF Wistar rats.
Tumour implant: 5 × 10^6 tumour cells i.p.
Therapy: One injection i.p. on the day following implantation.
Termination: The animals are killed on the 8th day.
Evaluation: Weights of tumours of test animals compared with those of control animals.
Regarding `C[C@]12CC[C@H]3[C@@H](CC=C4C[C@@H](OC(=O)N(CCCl)N=O)CC[C@@]43C)[C@@H]1CC[C@@H]2OC(=O)CCC(=O)O` [androstenediol-17β-hemisuccinate-3β-N-(2-chloroethyl)-N-nitroso carbamate], the anti-tumor activity entry is recorded as “exhibit anti-tumor activity”.

Take `CC(=O)[C@@]1(O)CC[C@H]2[C@@H]3C=C(Cl)C4=C[C@@H](OC(=O)N(CCCl)N=O)CC[C@]4(C)[C@H]3CC[C@@]21C` [6-chloro-pregna-4,6-diene-3β,17α-diol-20-one,3β-N-(2-chloroethyl)-N-nitroso carbamate]: the anti-tumor activity result was “exhibit anti-tumor activity”. As for `CC(=O)[C@H]1CC[C@H]2[C@@H]3CC=C4C[C@@H](OC(=O)N(C)C(=O)N(CCCl)N=O)CC[C@]4(C)[C@H]3CC[C@]12C` [pregnenolone-3β-/N^2-methyl-N^4-(2-chloroethyl)-N^4-nitroso allophanate/], the anti-tumor activity entry was “exhibit anti-tumor activity”. The same measure for `CCOP(=O)(O)O[C@H]1CC[C@H]2[C@@H]3CC=C4C[C@@H](OC(=O)N(CCCl)N=O)CC[C@]4(C)[C@H]3CC[C@]12C` [androstenediol-3β-/N-(2-chloroethyl)-N-nitroso carbamate/-17β-ethyl hydrogen phosphate]: “exhibit anti-tumor activity”; for `C[C@@]12C=CC[C@H]1[C@@H]1CCc3cc(OC(=O)N(CCCl)N=O)ccc3[C@H]1CC2` [estra-1,3,5(10),16-tetraen-3-ol,3-N-(2-chloroethyl)-N-nitroso carbamate]: “exhibit anti-tumor activity”; for `C[C@H]1C[C@H]2[C@@H]3CC[C@H](OC(=O)N(CCCl)N=O)[C@@]3(C)CC[C@@H]2[C@@]2(C)CCC(=O)C=C12` [6α-methyltestosterone-17β-N-(2-chloroethyl)-N-nitroso carbamate]: “exhibit anti-tumor activity”. The result for `C[C@@H]1CC2=CC(=O)CC[C@]2(C)[C@H]2CC[C@@]3(C)[C@@H](CC[C@]3(C)OC(=O)N(CCCl)N=O)[C@H]12` [7α,17α-dimethyltestosterone-17β-N-(2-chloroethyl)-N-nitroso carbamate] reads “exhibit anti-tumor activity”; that for `CC(=O)[C@H]1CC[C@H]2[C@@H]3CC=C4C[C@@H](OC(=O)N(C(=O)N(CCCl)N=O)C5CCCCC5)CC[C@]4(C)[C@H]3CC[C@]12C` [pregnenolone-3β-/N^2-cyclohexyl-N^4-(2-chloroethyl)-N^4-nitroso allophanate/], “exhibit anti-tumor activity”; that for `C[C@]12CC[C@H]3[C@@H](CC=C4C[C@@H](OC(=O)N(CCCl)N=O)CC[C@@]43C)[C@@H]1CC[C@@H]2OP(=O)(O)O` [androstenediol-3β-/N-(2-chloroethyl)-N-nitroso carbamate/-17β-dihydrogen phosphate], “exhibit anti-tumor activity”.

As to `CC(C)(C)C(=O)OCC(=O)[C@@]1(O)CC[C@H]2[C@@H]3CCC4=CC(=O)C=C[C@]4(C)[C@H]3[C@@H](OC(=O)N(CCCl)N=O)C[C@@]21C` [prednisolone-11β-/N-(2-chloroethyl)-N-nitroso carbamate/-21-pivalate], the anti-tumor activity entry is recorded as “exhibit anti-tumor activity”. As to `C#C[C@]1(OC(C)=O)CC[C@H]2[C@@H]3CCC4=C[C@@H](OC(=O)N(C(=O)N(CCCl)N=O)c5ccccc5)CC[C@@H]4[C@H]3CC[C@@]21C` [ethynodiol-17β-acetate-3β-/N^2-phenyl-N^4-(2-chloroethyl)-N-nitroso allophanate/], the anti-tumor activity entry is “exhibit anti-tumor activity”. On to `C#C[C@]1(OC(C)=O)CC[C@H]2[C@@H]3CCC4=C[C@@H](OC(=O)N(CCCC)C(=O)N(CCCl)N=O)CC[C@@H]4[C@H]3CC[C@@]21C` [ethynodiol-17β-acetate-3β-/N^2-n-butyl-N^4-(2-chloroethyl)-N^4-nitroso allophanate/], for which the anti-tumor activity result is “exhibit anti-tumor activity”. The same measure for `C[C@]12CC[C@@H](OC(=O)N(CCF)N=O)C[C@H]1CC[C@@H]1[C@@H]2CC[C@]2(C)C(=O)CC[C@@H]12` [etiocholanolone-3α-N-(2-fluoroethyl)-N-nitroso carbamate]: “exhibit anti-tumor activity”. With `C#C[C@]1(OC(C)=O)CC[C@H]2[C@@H]3CCC4=C[C@@H](OC(=O)N(C)C(=O)N(CCCl)N=O)CC[C@@H]4[C@H]3CC[C@@]21C` [ethynodiol-17β-acetate-3β-/N^2-methyl-N^4-(2-chloroethyl)-N^4-nitroso allophanate/], the anti-tumor activity result is reported as “exhibit anti-tumor activity”.

Regarding `CC(=O)O[C@H]1CC[C@H]2[C@@H]3CCc4cc(OC(=O)N(C)C(=O)N(CCCl)N=O)ccc4[C@H]3CC[C@]12C` [estradiol-17β-acetate-3-/N^2-methyl-N^ 4-(2-chloroethyl)-N^4-nitroso allophanate/], the anti-tumor activity entry is recorded as “exhibit anti-tumor activity”.

In the case of `CC(C)CCC[C@@H](C)[C@H]1CC[C@H]2[C@@H]3CC=C4C[C@@H](OC(=O)N(C(=O)N(CCCl)N=O)c5ccccc5)CC[C@]4(C)[C@H]3CC[C@]12C` [cholesterol-3β-/N^2-phenyl-N^4-(2-chloroethyl)-N^4-nitroso allophanate/], the anti-tumor activity entry was “exhibit anti-tumor activity”. The same measure for `CCCCC(=O)O[C@H]1CC[C@H]2[C@@H]3CCc4cc(OC(=O)N(CCCl)N=O)ccc4[C@H]3CC[C@]12C` [estradiol-17β-valerate-3-N-(2-chloroethyl)-N-nitroso carbamate]: “exhibit anti-tumor activity”. The result for `COc1ccc2c(c1)CC[C@@H]1[C@@H]2CC[C@]2(C)[C@@H](OC(=O)N(C)C(=O)N(CCCl)N=O)CC[C@@H]12` [estradiol-3-methylether-17β-/N^2-methyl-N^4-(2-chloroethyl)-N^4-nitroso allophanate] reads “exhibit anti-tumor activity”. As to `C[C@]12CCC(=O)C=C1CC[C@H]1[C@@H]3CC[C@](C)(OC(=O)N(CCCl)N=O)[C@@]3(C)C[C@H](O)[C@@]12F` [9α-fluoro-11β-hydroxy-17α-methyltestosterone-17β-N-(2-chloroethyl)-N-nitroso carbamate], the anti-tumor activity entry is “exhibit anti-tumor activity”. The result for `C#C[C@]1(OC(C)=O)CC[C@H]2[C@@H]3CCC4=C[C@@H](OC(=O)NC(=O)N(CCCl)N=O)CC[C@@H]4[C@H]3CC[C@@]21C` [ethynodiol-17β-acetate-3β-/N^4-(2-chloroethyl)-N^4-nitroso allophanate/] reads “exhibit anti-tumor activity”; that for `CC1CCC(N(C(=O)Oc2ccc3c(c2)CC[C@@H]2[C@@H]3CC[C@]3(C)C(=O)CC[C@@H]23)C(=O)N(CCCl)N=O)CC1` (stereo partly drawn) [estrone-3-/N^2-(4-methylcyclohexyl)-N^4-(2-chloroethyl)-N^4-nitroso allophanate/], “exhibit anti-tumor activity”; that for `C#C[C@]1(OC(=O)N(CCCl)N=O)CC[C@H]2[C@@H]3CCC4=C[C@@H](O)CC[C@@H]4[C@H]3CC[C@@]21C` [ethynodiol-17β-N-(2-chloroethyl)-N-nitroso carbamate], “exhibit anti-tumor activity”. The same measure for `C#C[C@]1(OC(C)=O)CC[C@H]2[C@@H]3CCC4=C[C@@H](OC(=O)N(CCF)N=O)CC[C@@H]4[C@H]3CC[C@@]21C` [ethynodiol-17β-acetate-3β-N-(2-fluoroethyl)-N-nitroso carbamate]: “exhibit anti-tumor activity”; for `CC(=O)[C@H]1CC[C@H]2[C@@H]3CC=C4C[C@@H](OC(=O)N(CCF)N=O)CC[C@]4(C)[C@H]3CC[C@]12C` [pregnenolone-3β-N-(2-fluoroethyl)-N-nitroso carbamate]: “exhibit anti-tumor activity”.

With `C[C@]12C=CC(=O)C=C1CC[C@@H]1[C@@H]2[C@@H](OC(=O)N(CCCl)N=O)C[C@@]2(C)[C@H]1CC[C@]2(O)C(=O)CO` [prednisolone-11β-N-(2-chloroethyl)-N-nitroso carbamate], the anti-tumor activity entry was “exhibit anti-tumor activity”. The result for `CC(=O)[C@H]1CC[C@H]2[C@@H]3CC=C4C[C@@H](OC(=O)N(C(=O)N(CCCl)N=O)C5CCC(C)CC5)CC[C@]4(C)[C@H]3CC[C@]12C` (stereo partly drawn) [pregnenolone-3β-/N^2-(4-methylcyclohexyl)-N^4-(2-chloroethyl)-N^4-nitroso allophanate/] reads “exhibit anti-tumor activity”; that for `C[C@]12CC[C@H]3[C@@H](CC=C4C[C@@H](OC(=O)N(CCCl)N=O)CC[C@@]43C)[C@@H]1CC[C@@H]2OS(=O)(=O)O` [androstenediol-3β-/N-(2-chloroethyl)-N-nitroso carbamate/-17β-sodium sulphate], “exhibit anti-tumor activity”.

As to `CC(C)CCC[C@@H](C)[C@H]1CC[C@H]2[C@@H]3CC=C4C[C@@H](OC(=O)N(CCF)N=O)CC[C@]4(C)[C@H]3CC[C@]12C` [cholesterol-3β-N-(2-fluoroethyl)-N-nitroso carbamate], the anti-tumor activity entry is “exhibit anti-tumor activity”. The result for `CC(C)CCC[C@@H](C)[C@H]1CC[C@H]2[C@@H]3CC=C4C[C@@H](OC(=O)N(C)C(=O)N(CCCl)N=O)CC[C@]4(C)[C@H]3CC[C@]12C` [cholesterol-3β-/N^2-methyl-N^4-(2-chloroethyl)-N^4-nitroso allophanate/] reads “exhibit anti-tumor activity”; that for `C[C@]12CC[C@H]3[C@@H](CC=C4C[C@@H](OC(=O)N(CCCl)N=O)CC[C@@]43C)[C@@H]1CC[C@@H]2OP(=O)(O)Oc1ccccc1` [androstenediol-3β-/N-(2-chloroethyl)-N-nitroso carbamate/-17β-phenyl hydrogen phosphate], “exhibit anti-tumor activity”.
